Assay results reported in ChEMBL document CHEMBL1138616, “Molecular design, synthesis and docking study of benz[b]oxepines and 12-oxobenzo[c]phenanthridinones as topoisomerase 1 inhibitors” (Bioorg Med Chem Lett, 2009).
Calls of active or inactive are those of the source. No cut-off for these calls is given here.

Key:
A549 = experiment: Cytotoxicity against human A549 cells by sulforhodamine B assay; assay type: functional, cell-based
HL-60 = experiment: Cytotoxicity against human HL60 cells by sulforhodamine B assay; assay type: functional, cell-based
HeLa = experiment: Cytotoxicity against human HeLa cells by sulforhodamine B assay; assay type: functional, cell-based
[1] = molecular target: T1, DNA topoisomerase 1 (Homo sapiens) (UniProt P11387); experiment: Inhibition of DNA topoisomerase 1 assessed as relaxation of supercoiled Escherichia coli pBR322 DNA at 100 uM
T1 sequence (whole entry): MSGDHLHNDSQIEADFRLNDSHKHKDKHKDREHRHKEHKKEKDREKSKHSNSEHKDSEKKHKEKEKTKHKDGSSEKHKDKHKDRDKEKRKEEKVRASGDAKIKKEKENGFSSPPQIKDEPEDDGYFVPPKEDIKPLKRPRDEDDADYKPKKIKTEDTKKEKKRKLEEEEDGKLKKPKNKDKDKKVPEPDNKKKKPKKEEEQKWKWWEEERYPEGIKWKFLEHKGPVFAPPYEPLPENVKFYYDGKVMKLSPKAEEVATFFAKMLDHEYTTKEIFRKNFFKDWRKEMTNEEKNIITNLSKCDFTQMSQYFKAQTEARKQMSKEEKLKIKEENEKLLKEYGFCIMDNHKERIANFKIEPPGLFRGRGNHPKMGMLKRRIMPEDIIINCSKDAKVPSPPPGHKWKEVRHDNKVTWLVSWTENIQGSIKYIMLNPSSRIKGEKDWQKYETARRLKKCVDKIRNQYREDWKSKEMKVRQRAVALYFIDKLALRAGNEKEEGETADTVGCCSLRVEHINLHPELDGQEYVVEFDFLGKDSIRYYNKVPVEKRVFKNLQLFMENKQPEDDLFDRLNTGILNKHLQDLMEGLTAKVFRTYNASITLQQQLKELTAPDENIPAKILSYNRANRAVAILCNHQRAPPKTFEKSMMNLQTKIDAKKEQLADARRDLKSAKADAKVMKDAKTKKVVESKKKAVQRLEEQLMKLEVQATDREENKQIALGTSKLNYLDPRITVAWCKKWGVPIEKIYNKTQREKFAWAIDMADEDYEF

Row | inhibition [1] | Compound | IC50 (A549) | IC50 (HL-60) | IC50 (HeLa)
1 | inactive | COCOc1ccccc1-c1cc2cc(C)ccc2c(=O)n1C | 99.8 µM | 14.3 µM | 28.6 µM
2 | 30.4% | Cc1ccc2c(=O)n(C)c3c(c2c1)C(C)Oc1ccccc1-3 (stereo unspecified) | 46 µM | 29.1 µM | 28.3 µM
3 | 5.3% | COc1cc2c3c(n(C)c(=O)c2cc1OC)-c1ccccc1OC3C (stereo unspecified) | 13.8 µM | 8.54 µM | 9.02 µM
4 | inactive | COc1ccc(Cn2c3c(c4ccc(C)cc4c2=O)CCOc2ccccc2-3)cc1 | 4.56 µM | 4.4 µM | 4.54 µM
5 | inactive | CC1Oc2ccccc2-c2c1c1ccccc1c(=O)n2C (stereo unspecified) | 65.5 µM | 30.1 µM | 40.1 µM
6 | inactive | COCOc1ccccc1-c1c(Br)c2ccc(C)cc2c(=O)n1C | 82 µM | 17.2 µM | 17.8 µM
7 | inactive | COc1ccc(Cn2c(-c3ccccc3O)c(Br)c3cc(C)ccc3c2=O)cc1 | 53 µM | 24.4 µM | 20.4 µM
8 | 98.2% | COc1cc2c3c(n(C)c(=O)c2cc1OC)-c1ccccc1OCC3 | 73 µM | 34.8 µM | 38.1 µM
9 | inactive | Cn1c2c(c3ccccc3c1=O)CCOc1ccccc1-2 | 66.8 µM | 37.6 µM | 19.7 µM
10 | 11.9% | Cc1ccc2c3c(n(C)c(=O)c2c1)-c1ccccc1OCC3 | 30.3 µM | 14.1 µM | 8.76 µM
11 | inactive | Cc1ccc2c(=O)n(C)c3c(c2c1)CCOc1ccccc1-3 | 61.3 µM | 33.6 µM | 41.6 µM
12 | inactive | Cc1ccc2c3c(n(C)c(=O)c2c1)-c1ccccc1OC3C (stereo unspecified) | 66.9 µM | – | 21.9 µM
13 | inactive | COc1ccc(Cn2c3c(c4cc(C)ccc4c2=O)CCOc2ccccc2-3)cc1 | > 100 µM | 9.26 µM | 10.3 µM

The remaining lines, values behind:

Row | Compound | inhibition [1] | IC50 (A549) | IC50 (HL-60) | IC50 (HeLa)
14 | COCOc1ccccc1-c1cc2ccccc2c(=O)n1C | inactive | > 100 µM | 59.5 µM | 64.6 µM
15 | COCOc1ccccc1-c1c(Br)c2cc(OC)c(OC)cc2c(=O)n1C | 40.7% | > 100 µM | 37.8 µM | 99.3 µM
16 | COc1ccc(Cn2c(-c3ccccc3O)c(Br)c3ccccc3c2=O)cc1 | inactive | 71.2 µM | 31.6 µM | 36.8 µM
17 | COc1ccc(Cn2c3c(c4ccccc4c2=O)CCOc2ccccc2-3)cc1 | 94.5% | 11 µM | 4.49 µM | 4.78 µM
18 | COCOc1ccccc1-c1cc2cc(C)ccc2c(=O)[nH]1 | inactive | > 100 µM | 0.16 µM | 0.17 µM
19 | COCOc1ccccc1-c1cc2ccccc2c(=O)[nH]1 | inactive | 23.6 µM | 0.62 µM | 0.62 µM
20 | C=COc1ccccc1-c1c(Br)c2ccccc2c(=O)n1Cc1ccc(OC)cc1 | inactive | > 100 µM | 59.5 µM | 36.5 µM
21 | C=COc1ccccc1-c1c(Br)c2cc(C)ccc2c(=O)n1Cc1ccc(OC)cc1 | inactive | 67.8 µM | 29.2 µM | 14.8 µM
22 | CC[C@@]1(O)C(=O)OCc2c1cc1n(c2=O)Cc2cc3ccccc3nc2-1 [CAMPTOTHECIN] | – | 0.058 µM | 0.089 µM | 0.072 µM
